From the NIST ThermoML archive (doi:10.1016/j.fluid.2004.12.005)

Assays:
[1] = excess molar enthalpy (molar enthalpy of mixing); xn = mol fraction of the nth substance listed; conditions: Liquid, Flow calorimetry
[2] = activity coefficient (dimensionless); of the first substance listed, at infinite dilution; xn = mol fraction of the nth substance listed; conditions: Liquid, Chromatography, x1 = 0

COC(C)=O [methyl ethanoate] + CCCCCCCCCC
[1]
Conditions | excess molar enthalpy [kcal/mol]
363.15 K, 1582 kPa, x1 = 0.1148 | 0.164
363.15 K, 1582 kPa, x1 = 0.2149 | 0.282
363.15 K, 1582 kPa, x1 = 0.303 | 0.361
363.15 K, 1582 kPa, x1 = 0.3811 | 0.413
363.15 K, 1582 kPa, x1 = 0.4509 | 0.442
363.15 K, 1582 kPa, x1 = 0.5135 | 0.455
363.15 K, 1582 kPa, x1 = 0.5701 | 0.458
363.15 K, 1582 kPa, x1 = 0.6215 | 0.45
363.15 K, 1582 kPa, x1 = 0.6684 | 0.434
363.15 K, 1582 kPa, x1 = 0.7112 | 0.415
363.15 K, 1582 kPa, x1 = 0.7507 | 0.387
363.15 K, 1582 kPa, x1 = 0.787 | 0.356
363.15 K, 1582 kPa, x1 = 0.8206 | 0.321
363.15 K, 1582 kPa, x1 = 0.8518 | 0.283
363.15 K, 1582 kPa, x1 = 0.8808 | 0.242
363.15 K, 1582 kPa, x1 = 0.9079 | 0.199
363.15 K, 1582 kPa, x1 = 0.9331 | 0.152
363.15 K, 1582 kPa, x1 = 0.9568 | 0.103
363.15 K, 1582 kPa, x1 = 0.9791 | 0.0532
413.15 K, 1376 kPa, x1 = 0.1148 | 0.153
413.15 K, 1376 kPa, x1 = 0.2149 | 0.261
413.15 K, 1376 kPa, x1 = 0.303 | 0.335
413.15 K, 1376 kPa, x1 = 0.3811 | 0.385
413.15 K, 1376 kPa, x1 = 0.4509 | 0.416
413.15 K, 1376 kPa, x1 = 0.5136 | 0.431
413.15 K, 1376 kPa, x1 = 0.5702 | 0.434
413.15 K, 1376 kPa, x1 = 0.6215 | 0.427
413.15 K, 1376 kPa, x1 = 0.6684 | 0.413
413.15 K, 1376 kPa, x1 = 0.7113 | 0.396
413.15 K, 1376 kPa, x1 = 0.7507 | 0.37
413.15 K, 1376 kPa, x1 = 0.787 | 0.341
413.15 K, 1376 kPa, x1 = 0.8206 | 0.308
413.15 K, 1376 kPa, x1 = 0.8518 | 0.271
413.15 K, 1376 kPa, x1 = 0.8808 | 0.232
413.15 K, 1376 kPa, x1 = 0.9079 | 0.19
413.15 K, 1376 kPa, x1 = 0.9332 | 0.145
413.15 K, 1376 kPa, x1 = 0.9568 | 0.0981
413.15 K, 1376 kPa, x1 = 0.9791 | 0.0501

CCOC(C)=O [ethyl acetate] + CCCCCCCCCC
[2]
Conditions | activity coefficient
303.16 K | 3.07
313.14 K | 2.95
323.17 K | 2.84
333.16 K | 2.75
